# Values joined by “and” are separate entries in the source; they are usually repeats but may differ in a detail not shown here. Equal entries are not always repeated. Where two headings read alike, the source gives them in different places.
# Legend:
# [1] = background statement, in words; cited from earlier work
# uridine phosphorylase [2] = settings: among the acyclouridines developed; cited from earlier work
# [3] = system: cleavage of FdUrd in certain tumor extracts; settings: cited from earlier work
# [4] = system: human pancreatic carcinoma (DAN); settings: in vitro; cited from earlier work
# [5] = system: human lung carcinoma (LX-1); settings: LX-1, in vitro; cited from earlier work
# [6] = system: human pancreatic carcinoma (DAN); settings: in vivo; cited from earlier work
# [7] = system: human lung carcinoma (LX-1); settings: LX-1, in vivo; cited from earlier work
# [8] = system: human pancreatic carcinoma (DAN); assay: Growth inhibition of pancreatic carcinoma DAN cells in culture by FdUrd with or without potentiator; type: cell-based; settings: for in vitro antineoplastic activity of FdUrd with potentiator, in words: DAN cells, combination with FdUrd; for effect of potentiator alone on the growth of DAN in culture: potentiator alone at 50 μM, no FdUrd
# Description: Determination of the activities of HM-BAU and HM-BBAU as potentiators of FdUrd anti-neoplastic activity was carried out using a human pancreatic carcinoma (DAN) in culture. Details of the procedure are described in Chu et al., supra. Table 1 summarizes the effect of HM-BAU and HM-BBAU upon the inhibitory effect of FdUrd on the growth of pancreatic DAN cells in culture.
# FdUrd alone at 0.1 and 0.3 μM inhibited the cell growth by 20% and 34% respectively.
# uridine phosphorylase [9] = assay: Inhibition of uridine phosphorylase from mouse liver (105,000×g supernatant of liver homogenate); type: biochemical; settings: mouse liver enzyme; apparent Ki = Ki(1+[S]/Km); type of inhibition not characterized
# Description: (§1) Testing of compounds HM-BAU and HM-BBAU as inhibitors of uridine phosphorylase was performed using 105,000×g supernatant of mouse liver and human liver homogenates. Enzyme assays were carried out as described in Niedzwicki et al., Biochem. Pharm. 31, 1857 (1982), supra. Apparent Ki values are related to Ki by the following equation: [formula] where Kis and Kii are the inhibition constants that would have been estimated from the replots of slope and intercept, respectively, of a Lineweaver-Burk plot vs [I]. If a compound is a competitive inhibitor with respect to the substrate uridine. Kii =.infin. and Kis =Ki. Therefore:
# (§2) apparent Ki =Ki (1+[S]/Km)
# (§3) Thus, the true Ki values would be lower than the apparent Ki values by a factor of (1+S/Km). It must be noted, however, that these compounds were not characterized with regard to the type of inhibition (i.e. competitive, non-competitive or uncompetitive), nor were they tested as substrates for uridine phosphorylase.
# uridine phosphorylase [10] = assay: Inhibition of uridine phosphorylase from human liver (105,000×g supernatant of liver homogenate); type: biochemical; settings: for Ki: human liver enzyme, apparent Ki = Ki(1+[S]/Km), type of inhibition not characterized; for inhibition of human liver uridine phosphorylase, in words: compared with BAU and BBAU
# Description: as §1, §2, §3
# Water solubility = type: physicochemical; settings: in words
# [11] = potentiator 50 μM, added 5 minutes prior to FdUrd 0.1 μM, P < 0.001 vs control, p < 0.01 from one another
# [12] = potentiator 50 μM, added 5 minutes prior to FdUrd 0.3 μM
compound,measurement,setting,value
"O=c1[nH]c(=O)n(COCCO)cc1Cc1ccccc1 [BAU, 5-benzylacyclouridine]",water solubility,[1],not very water soluble
same,"effectiveness as uridine phosphorylase inhibitor, in words",uridine phosphorylase [2],particularly effective
same,inhibition of cleavage of FdUrd,[3],inhibit the cleavage of FdUrd
same,enhancement of antineoplastic activity of FdUrd,[4],enhance the antineoplastic activity of FdUrd
same,enhancement of antineoplastic activity of FdUrd,[5],enhance the antineoplastic activity of FdUrd
same,enhancement of antineoplastic activity of FdUrd,[6],enhance the antineoplastic activity of FdUrd
same,enhancement of antineoplastic activity of FdUrd,[7],enhance the antineoplastic activity of FdUrd
"O=c1[nH]c(=O)n(COCCO)cc1Cc1cccc(OCc2ccccc2)c1 [BBAU, 5-benzyloxybenzylacyclouridine]",water solubility,[1],not very water soluble
same,"effectiveness as uridine phosphorylase inhibitor, in words",uridine phosphorylase [2],particularly effective
same,inhibition of cleavage of FdUrd,[3],inhibit the cleavage of FdUrd
same,enhancement of antineoplastic activity of FdUrd,[4],enhance the antineoplastic activity of FdUrd
same,enhancement of antineoplastic activity of FdUrd,[5],enhance the antineoplastic activity of FdUrd
same,enhancement of antineoplastic activity of FdUrd,[6],enhance the antineoplastic activity of FdUrd
same,enhancement of antineoplastic activity of FdUrd,[7],enhance the antineoplastic activity of FdUrd
"O=c1[nH]c(=O)n([C@H]2C[C@H](O)[C@@H](CO)O2)cc1F [FdUrd, 5-fluoro-2'-deoxyuridine]",% Growth Inhibition of DAN cells in culture,"[8]; FdUrd 0.1 μM alone, no potentiator",20%
same,% Growth Inhibition of DAN cells in culture,"[8]; FdUrd 0.3 μM alone, no potentiator",34%
same,inhibition at 0.1 µM,"[8]; Homo sapiens, FdUrd 0.1 μM alone, no potentiator",20.2 ± 1.1%
same,inhibition at 0.3 µM,"[8]; Homo sapiens, FdUrd 0.3 μM alone, no potentiator",33.8 ± 1.3%
same,inhibition at 1 µM,"[8]; Homo sapiens, FdUrd 1.0 μM alone, no potentiator",66 ± 1.4%
"O=c1[nH]c(=O)n(COC(CO)CO)cc1Cc1ccccc1 [HM-BAU, 5-Benzyl-1-[(1,3-dihydroxy-2-propoxy)methyl]uracil]",Ki,uridine phosphorylase [9],1.6 µM
same,Ki,uridine phosphorylase [10],2.5 µM
same,"inhibition of human liver uridine phosphorylase, in words",uridine phosphorylase [10],excellent inhibitors of this enzyme and superior to BAU and BBAU
same,"in vitro antineoplastic activity of FdUrd with potentiator, in words",[8],significantly potentiated
same,% Growth Inhibition of DAN cells in culture,[8]; [11],63.4 ± 1.1% and 63%
same,% Growth Inhibition of DAN cells in culture,[8]; [12],67.8 ± 1.7% and 68%
same,effect of potentiator alone on the growth of DAN in culture,[8],do not affect the growth of DAN in culture
same,water solubility,Water solubility,water soluble
"O=c1[nH]c(=O)n(COC(CO)CO)cc1Cc1cccc(OCc2ccccc2)c1 [HM-BBAU, 5-(m-Benzyloxybenzyl)-1-[(1,3-dihydroxy-2-propoxy)methyl]uracil]",Ki,uridine phosphorylase [9],0.32 µM
same,Ki,uridine phosphorylase [10],0.65 µM
same,"inhibition of human liver uridine phosphorylase, in words",uridine phosphorylase [10],excellent inhibitors of this enzyme and superior to BAU and BBAU
same,"in vitro antineoplastic activity of FdUrd with potentiator, in words",[8],significantly potentiated
same,% Growth Inhibition of DAN cells in culture,[8]; [11],73.6 ± 0.3% and 74%
same,% Growth Inhibition of DAN cells in culture,"[8]; potentiator 50 μM, added 5 minutes prior to FdUrd 0.1 μM, P < 0.001 vs control, p < 0.01 from one another, listed as HN-BBAU",74%
same,% Growth Inhibition of DAN cells in culture,[8]; [12],83.2 ± 1.3% and 83%
same,% Growth Inhibition of DAN cells in culture,"[8]; potentiator 50 μM, added 5 minutes prior to FdUrd 0.3 μM, listed as HN-BBAU",83%
same,effect of potentiator alone on the growth of DAN in culture,[8],do not affect the growth of DAN in culture
same,water solubility,Water solubility,water soluble

# Source: patent US4613604A, “Hydroxymethyl derivatives of 5-benzylacyclouridine and 5-benzoyloxybenzylacyclouridine and their use as potentiators for 5-fluoro-2'-deoxyuridine” (Brown University Research Foundation, priority 1985, dated 1986)
